From patent publication EP2768830B1, “APOPTOSIS-INDUCING AGENTS FOR THE TREATMENT OF CANCER AND IMMUNE AND AUTOIMMUNE DISEASES” (AbbVie Inc., priority 2011, dated 2013)
Read-outs that look alike come from different tables or passages of the source.

Assays:
[1] = test system: mouse FL5.12 cells transfected with Bcl-XL; test: FL5.12 cellular assay (cell viability, CellTiter-Glo); format: cell-based; conditions: FL5.12 cells transfected with Bcl-XL, IL-3-depleted, 3% FBS assay media, 24 hours, CellTiter-Glo, read-out: FL5.12 Bcl-xL, - IL3, EC 50;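 note: each EC50 determination derived from duplicate measurements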
GST-Bcl-xL = GST-Bcl-xL (Homo sapiens, UniProt Q07817); conditions: read-out: TR-FRET binding Bcl-xL Ki
Chain of GST-Bcl-xL (Q07817 whole entry): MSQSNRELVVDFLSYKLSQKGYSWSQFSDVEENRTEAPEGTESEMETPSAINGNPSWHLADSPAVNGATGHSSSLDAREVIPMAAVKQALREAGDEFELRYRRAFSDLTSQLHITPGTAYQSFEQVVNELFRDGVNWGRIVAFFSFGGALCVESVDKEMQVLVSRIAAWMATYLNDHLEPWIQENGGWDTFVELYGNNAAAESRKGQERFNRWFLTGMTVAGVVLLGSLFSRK

SMILES | EC50 ([1]; Mus musculus) | Ki (GST-Bcl-xL) | EC50 [1]
Cc1c(-c2ccc(N3CCc4cccc(C(=O)Nc5nc6ccccc6s5)c4C3)nc2C(=O)O)cnn1CC1CCCCO1 (centres unmarked) [Example 154, 6-[8-(1,3-benzothiazol-2-ylcarbamoyl)-3,4-dihydroisoquinolin-2(1H)-yl]-3-[5-methyl-1-(tetrahydro-2H-pyran-2-ylmethyl)-1H-pyrazol-4-yl]pyridine-2-carboxylic acid] | 15 nM | < 0.1 nM | –
CN(C)CCCOc1ccccc1Cn1cc(-c2ccc(N3CCc4cccc(C(=O)Nc5nc6ccccc6s5)c4C3)nc2C(=O)O)cn1 [Example 47, 6-[8-(1,3-benzothiazol-2-ylcarbamoyl)-3,4-dihydroisoquinolin-2(1H)-yl]-3-(1-{2-[3-(dimethylamino)propoxy]benzyl}-1H-pyrazol-4-yl)pyridine-2-carboxylic acid] | 881 nM | 16 nM | –
COCCC1(Cn2ncc(-c3ccc(N4CCc5cccc(C(=O)Nc6nc7ccccc7s6)c5C4)nc3C(=O)O)c2C)CCCC(C)(C)C1 (centres unmarked) [Example 146, 6-[8-(1,3-benzothiazol-2-ylcarbamoyl)-3,4-dihydroisoquinolin-2(1H)-yl]-3-(1-{[1-(2-methoxyethyl)-3,3-dimethylcyclohexyl]methyl}-5-methyl-1H-pyrazol-4-yl)pyridine-2-carboxylic acid] | 11 nM | < 0.1 nM | –
CC(C)CC1(Cn2cc(-c3ccc(N4CCc5cccc(C(=O)Nc6nc7ccccc7s6)c5C4)nc3C(=O)O)cn2)CCCCC1 [Example 87, 6-[8-(1,3-benzothiazol-2-ylcarbamoyl)-3,4-dihydroisoquinolin-2(1H)-yl]-3-(1-{[1-(2-methylpropyl)cyclohexyl]methyl}-1H-pyrazol-4-yl)pyridine-2-carboxylic acid] | 124 nM | 4 nM | –
Cc1c(-c2ccc(N3CCc4cccc(C(=O)Nc5nc6ccccc6s5)c4C3)nc2C(=O)O)cccc1N(C)c1ccccc1 [Example 156, 6-[8-(1,3-benzothiazol-2-ylcarbamoyl)-3,4-dihydroisoquinolin-2(1H)-yl]-3-{2-methyl-3-[methyl(phenyl)amino]phenyl}pyridine-2-carboxylic acid] | 15 nM | – | –
Cc1c(Oc2ccccc2)cccc1-c1ccc(N2CCc3cccc(C(=O)Nc4nc5ccccc5s4)c3C2)nc1C(=O)O [Example 110, 6-[8-(1,3-benzothiazol-2-ylcarbamoyl)-3,4-dihydroisoquinolin-2(1H)-yl]-3-(2-methyl-3-phenoxyphenyl)pyridine-2-carboxylic acid] | 90 nM | – | –
Cc1c(-c2ccc(N3CCc4cccc(C(=O)Nc5nc6ccccc6s5)c4C3)nc2C(=O)O)cnn1CC1CCCCC1 [Example 43, 6-[8-(1,3-benzothiazol-2-ylcarbamoyl)-3,4-dihydroisoquinolin-2(1H)-yl]-3-[1-(cyclohexylmethyl)-5-methyl-1H-pyrazol-4-yl]pyridine-2-carboxylic acid] | 4 nM | – | –
O=C(Nc1nc2ccccc2s1)c1cccc2c1CN(c1ccc(-c3ccn(Cc4ccccc4)c3)c(C(=O)O)n1)CC2 [Example 125, 6-[8-(1,3-benzothiazol-2-ylcarbamoyl)-3,4-dihydroisoquinolin-2(1H)-yl]-3-(1-benzyl-1H-pyrrol-3-yl)pyridine-2-carboxylic acid] | – | – | 527 nM
O=C(Nc1nc2ccccc2s1)c1cccc2c1CN(c1ccc(-c3cnn(CC4CCCCO4)c3)c(C(=O)O)n1)CC2 (centres unmarked) [Example 149, 6-[8-(1,3-benzothiazol-2-ylcarbamoyl)-3,4-dihydroisoquinolin-2(1H)-yl]-3-[1-(tetrahydro-2H-pyran-2-ylmethyl)-1H-pyrazol-4-yl]pyridine-2-carboxylic acid] | 986 nM | – | –
Cc1c(-c2ccc(N3CCc4cccc(C(=O)Nc5nc6ccccc6s5)c4C3)nc2C(=O)O)cccc1N(C)C1CCCC(C)(C)C1 (centres unmarked) [Example 159, 6-[8-(1,3-benzothiazol-2-ylcarbamoyl)-3,4-dihydroisoquinolin-2(1H)-yl]-3-{3-[(3,3-dimethylcyclohexyl)(methyl)amino]-2-methylphenyl}pyridine-2-carboxylic acid] | 31 nM | – | –
